ChEMBL document CHEMBL1137327, “Optimization of chromone-2-carboxamide melanin concentrating hormone receptor 1 antagonists: assessment of potency, efficacy, and cardiovascular safety” (J Med Chem, 2006)

What was measured:
[1] = target: T1, Melanin-concentrating hormone receptor 1 (Homo sapiens, UniProt Q99705); test: Antagonist activity at MCHr1 assessed as inhibition of MCH-mediated calcium ion release in intact IMR32 cells by FLIPR assay; type: functional, cell-based, IMR-32
[2] = target: T1, Melanin-concentrating hormone receptor 1; test: Displacement of [125I]MCH from MCHr1 expressed in IMR32 cells; type: cell-based, IMR-32
[3] = Half life in C57BL/6J DIO mouse plasma at 10 mg/kg, po; type: ADME, organism-based; parameters: dose 10 mg/kg, route oral
Rattus norvegicus [4] = test: Drug level in anesthetized Sprague-Dawley rat plasma; type: ADME, organism-based; conditions: in vivo
[5] = Cmax in C57BL/6J DIO mouse plasma at 10 mg/kg, po; type: ADME, organism-based; parameters: dose 10 mg/kg, route oral
[6] = AUC in C57BL/6J DIO mouse plasma at 10 mg/kg, po; type: ADME, organism-based; parameters: dose 10 mg/kg, route oral
Rattus norvegicus [7] = test: Drug level in anesthetized Sprague-Dawley rat brain; type: ADME, organism-based; conditions: in vivo
Rattus norvegicus [8] = test: Decrease in heart rate in anesthetized Sprague-Dawley rat at 100 mg/kg; type: functional; parameters: scale not given: the % may be the effect or the level left
Mus musculus [9] = test: AUC in C57BL/6J DIO mouse brain at 10 mg/kg, po; type: ADME, organism-based; parameters: dose 10 mg/kg, route oral; conditions: in vivo
Rattus norvegicus [10] = test: Decrease in mean arterial pressure in anesthetized Sprague-Dawley rat at 60 mg/kg; type: functional, Artery; parameters: scale not given: the % may be the effect or the level left
[11] = Drug level in anasthetized Beagle dog plasma at 30 mg/kg, iv after 30 mins; type: ADME, organism-based, Canis lupus familiaris; parameters: dose 30 mg/kg, route intravenous
[12] = Drug level in C57BL/6J DIO mouse plasma at 10 mg/kg, po after 22 days; type: ADME, organism-based; parameters: dose 10 mg/kg, route oral
[13] = Drug level in C57BL/6J DIO mouse brain at 10 mg/kg, po after 22 days; type: ADME, organism-based; parameters: dose 10 mg/kg, route oral; conditions: read-out: Drug uptake
[14] = Drug level in C57BL/6J DIO mouse plasma at 3 mg/kg, po after 22 days; type: ADME, organism-based; parameters: dose 3 mg/kg, route oral
Canis familiaris [15] = organism: Canis familiaris; test: Decrease in heart rate in anasthetized Beagle dog at 36.13 ug/ml relative to control; type: functional, Canis lupus familiaris; parameters: scale not given: the % may be the effect or the level left
[16] = Drug level in anasthetized Beagle dog plasma at 3 mg/kg, iv after 30 mins; type: ADME, organism-based, Canis lupus familiaris; parameters: dose 3 mg/kg, route intravenous
[17] = Half life in C57BL/6J DIO mouse brain at 10 mg/kg, po; type: ADME, organism-based; parameters: dose 10 mg/kg, route oral
[18] = Drug level in anasthetized Beagle dog plasma at 10 mg/kg, iv after 30 mins; type: ADME, organism-based, Canis lupus familiaris; parameters: dose 10 mg/kg, route intravenous
Canis familiaris [19] = organism: Canis familiaris; test: Decrease in heart rate in anasthetized Beagle dog at 10.94 ug/ml relative to control; type: functional, Canis lupus familiaris; parameters: scale not given: the % may be the effect or the level left
[20] = Ratio of AUC in brain to plasma of C57BL/6J DIO mouse at 10 mg/kg, po; type: ADME, organism-based; parameters: dose 10 mg/kg, route oral; conditions: brain and plasma, read-out: Ratio AUC
[21] = Drug level in C57BL/6J DIO mouse brain at 3 mg/kg, po after 22 days; type: ADME, organism-based; parameters: dose 3 mg/kg, route oral; conditions: read-out: Drug uptake
[22] = Cmax in C57BL/6J DIO mouse brain at 10 mg/kg, po; type: ADME, organism-based; parameters: dose 10 mg/kg, route oral
Mus musculus [23] = test: Decrease in body weight of C57BL/6J DIO mouse at 10 mg/kg, po after 22 days relative to control; type: functional; parameters: scale not given: the % may be the effect or the level left
Mus musculus [24] = test: Decrease in body weight of C57BL/6J DIO mouse at 3 mg/kg, po after 22 days relative to control; type: functional; parameters: scale not given: the % may be the effect or the level left

T1 sequence (Q99705 whole entry): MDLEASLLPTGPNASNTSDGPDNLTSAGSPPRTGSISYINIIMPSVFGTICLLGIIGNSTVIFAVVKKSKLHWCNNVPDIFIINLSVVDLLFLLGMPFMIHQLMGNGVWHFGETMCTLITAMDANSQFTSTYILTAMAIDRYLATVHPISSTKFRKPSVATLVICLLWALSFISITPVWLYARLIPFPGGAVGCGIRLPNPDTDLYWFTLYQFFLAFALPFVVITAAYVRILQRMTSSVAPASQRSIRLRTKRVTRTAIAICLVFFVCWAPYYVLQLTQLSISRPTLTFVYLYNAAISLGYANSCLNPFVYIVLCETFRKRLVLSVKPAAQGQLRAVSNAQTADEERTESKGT

Row | SMILES | IC50 [1] [nM] | IC50 [2] [nM] | other results
1 | CCc1ccc2c(=O)cc(C(=O)NC3CCN(Cc4ccc5c(c4)OCO5)CC3)oc2c1 | 529 | 59 | –
2 | O=C(NC1CCN(Cc2ccc3c(c2)OCO3)CC1)c1cc(=O)c2cc(F)c(F)cc2o1 | 13 | 2 | Activity (Rattus norvegicus [10]): >15%; Cp (Rattus norvegicus [4]): 34000 ng/mL; Drug uptake (Rattus norvegicus [7]): 25 µg/g
3 | COc1ccc2c(=O)cc(C(=O)N3CCN(Cc4ccc5c(c4)OCO5)CC3)oc2c1 | – | > 2000 | –
4 | O=C(NC1CCN(Cc2ccc3c(c2)OC(F)(F)O3)CC1)c1cc(=O)c2ccc(F)cc2o1 | 601 | 57 | –
5 | CC(=O)Nc1ccc(CN2CCC(NC(=O)c3cc(=O)c4ccc(F)cc4o3)CC2)cc1 | > 10000 | 1690 | –
6 | O=C(NC1CCN(Cc2ccc3c(c2)OCO3)CC1)c1cc(=O)c2ccc(Br)cc2o1 | 82 | 32 | –
7 | COc1ccc2c(=O)cc(C(=O)NC3CCC(CNCc4ccc5c(c4)OCO5)CC3)oc2c1 (stereo not drawn) | – | > 2000 | –
8 | O=C(NC1CCN(Cc2ccc(F)cc2)CC1)c1cc(=O)c2ccc(F)cc2o1 | 789 | 159 | –
9 | COc1ccc2c(=O)cc(C(=O)NC3CCN(Cc4ccc5c(c4)OCO5)C3)oc2c1 (stereo not drawn) | – | > 2000 | –
10 | O=C(NC1CCN(Cc2ccccc2F)CC1)c1cc(=O)c2ccc(F)cc2o1 | 2150 | 566 | –
11 | Cc1c(C(=O)NC2CCN(Cc3ccc4c(c3)OCO4)CC2)oc2cc(Cl)ccc2c1=O | 67 | 2 | –
12 | O=C(NC1CCN(Cc2ccc3c(c2)OCO3)CC1)c1cc(=O)c2c(Cl)c(Cl)ccc2o1 | 4750 | 75 | –
13 | O=C(NC1CCN(Cc2ccc3c(c2)OCO3)CC1)c1cc(=O)c2ccc(F)cc2o1 | – | – | half-life [3]: 2.5 h; concentration at 0.5 h [11]: 85.1 µM; concentration at 528 h [12]: 3270 ng/mL; concentration at 528 h [13]: 4670 ng/g; concentration at 528 h [14]: 840 ng/mL; Activity (Canis familiaris [15]): 11%; Cp (Rattus norvegicus [4]): 62000 ng/mL; Cmax ([5]; read-out: Cp): 1780 ng/mL; concentration at 0.5 h [16]: 5.9 µM; half-life [17]: 2.4 h; concentration at 0.5 h [18]: 25.8 µM; Activity (Canis familiaris [19]): 22%; Kp [20]: 1.4; AUC [6]: 9290 ng·h/mL; Drug uptake (Rattus norvegicus [7]): 126 µg/g; concentration at 528 h [21]: 1110 ng/g; Cmax [22]: 4370 ng/g; Activity (Mus musculus [23]): 7%; AUC (Mus musculus [9]): 12658 ng·h/g; Activity (Mus musculus [24]): 0%

Further lines, with some results ahead:

Row | IC50 [1] [nM] | IC50 [2] [nM] | SMILES | other results
14 | 83 | – | O=C(NC1CCN(Cc2ccc3c(c2)OCO3)CC1)c1cc(=O)c2cc(Cl)c(Cl)cc2o1 | half-life [3]: 0.9 h; Cp (Rattus norvegicus [4]): 20000 ng/mL; Cmax ([5]; read-out: Cmax): 33 ng/mL; AUC [6]: 39 ng·h/mL; Drug uptake (Rattus norvegicus [7]): 63 µg/g; Activity (Rattus norvegicus [8]): 10%; AUC (Mus musculus [9]): 0 ng·h/g
15 | 592 | 60 | O=C(NC1CCN(Cc2ccccc2)CC1)c1cc(=O)c2ccc(F)cc2o1 | –
16 | 966 | 12 | O=C(NC1CCN(Cc2cccc(F)c2)CC1)c1cc(=O)c2ccc(F)cc2o1 | –
17 | 2720 | 99 | O=C(NC1CCN(Cc2ccc3c(c2)OCO3)CC1)c1cc(=O)c2cc(F)cc(F)c2o1 | –
18 | 79 | 5 | O=C(NC1CCN(Cc2ccc3c(c2)OCO3)CC1)c1cc(=O)c2ccc(Cl)cc2o1 | –
19 | 101 | 13 | COc1ccc(CN2CCC(NC(=O)c3cc(=O)c4ccc(F)cc4o3)CC2)cc1 | –
20 | 3070 | 178 | O=C(NC1CCN(Cc2ccc3c(c2)OCO3)CC1)c1cc(=O)c2ccc(C(F)(F)F)cc2o1 | –
21 | 418 | 91 | O=C(NC1CCN(Cc2ccc3c(c2)OCO3)CC1)c1cc(=O)c2cc(F)c(F)c(F)c2o1 | –
22 | > 10000 | 1480 | O=C(NC1CCN(Cc2ccc3c(c2)OCO3)CC1)c1cc(=O)c2ccc(O)cc2o1 | –
